According to ChEMBL document CHEMBL5614367, “Hydroxamic acid hybrids: Histone deacetylase inhibitors with anticancer therapeutic potency” (Eur J Med Chem, 2023):
Values belong to the molecule of their own block, whether it stands above or below them.

Legend:
MCF7 [1] = test: Antiproliferative activity against human MCF7 cells assessed as cell growth inhibition by SRB assay; assay type: functional
K562 = test: Antiproliferative activity against human K562 cells assessed as cell growth inhibition by SRB assay; assay type: functional
HeLa [2] = test: Antiproliferative activity against human HeLa cells measured after 24 hrs by MTT assay; assay type: functional, cell-based
HepG2 [3] = test: Antiproliferative activity against human HepG2 cells measured after 24 hrs by MTT assay; assay type: functional, cell-based; settings: HepG2, 24 h
A549 [4] = test: Antiproliferative activity against human A549 cells assessed as cell growth inhibition by SRB assay; assay type: functional
HeLa [5] = test: Antiproliferative activity against human HeLa cells assessed as cell growth inhibition by SRB assay; assay type: functional
HCT-116 [6] = test: Antiproliferative activity against human HCT-116 cells measured after 24 hrs by MTT assay; assay type: functional, cell-based; settings: HCT-116, 24 h
Histone deacetylase 1 = Histone deacetylase 1 (Homo sapiens, UniProt Q13547); test: Inhibition of HDAC1 (unknown origin)
Sequence of Histone deacetylase 1 (Q13547 whole entry): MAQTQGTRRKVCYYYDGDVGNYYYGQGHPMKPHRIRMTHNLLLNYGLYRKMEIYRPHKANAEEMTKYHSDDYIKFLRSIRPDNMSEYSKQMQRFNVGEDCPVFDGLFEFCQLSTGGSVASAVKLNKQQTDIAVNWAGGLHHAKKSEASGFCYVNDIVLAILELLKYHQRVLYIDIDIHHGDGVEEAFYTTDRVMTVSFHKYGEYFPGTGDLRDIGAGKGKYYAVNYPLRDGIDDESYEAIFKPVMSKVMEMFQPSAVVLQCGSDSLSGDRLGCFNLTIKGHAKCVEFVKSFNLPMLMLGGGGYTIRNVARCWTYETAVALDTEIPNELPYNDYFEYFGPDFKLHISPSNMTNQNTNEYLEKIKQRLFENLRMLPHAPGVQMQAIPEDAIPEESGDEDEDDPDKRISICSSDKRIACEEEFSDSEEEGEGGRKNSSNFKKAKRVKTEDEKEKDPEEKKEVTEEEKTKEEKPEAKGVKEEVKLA

A2780 = test: Antiproliferative activity against human A2780 cells; assay type: functional, cell-based
[7] = biological target: Phosphatidylinositol 4,5-bisphosphate 3-kinase catalytic subunit alpha isoform (Homo sapiens, UniProt P42336); test: Inhibition of PI3Kalpha (unknown origin)
Sequence of Phosphatidylinositol 4,5-bisphosphate 3-kinase catalytic subunit alpha isoform (P42336 whole entry, canonical isoform): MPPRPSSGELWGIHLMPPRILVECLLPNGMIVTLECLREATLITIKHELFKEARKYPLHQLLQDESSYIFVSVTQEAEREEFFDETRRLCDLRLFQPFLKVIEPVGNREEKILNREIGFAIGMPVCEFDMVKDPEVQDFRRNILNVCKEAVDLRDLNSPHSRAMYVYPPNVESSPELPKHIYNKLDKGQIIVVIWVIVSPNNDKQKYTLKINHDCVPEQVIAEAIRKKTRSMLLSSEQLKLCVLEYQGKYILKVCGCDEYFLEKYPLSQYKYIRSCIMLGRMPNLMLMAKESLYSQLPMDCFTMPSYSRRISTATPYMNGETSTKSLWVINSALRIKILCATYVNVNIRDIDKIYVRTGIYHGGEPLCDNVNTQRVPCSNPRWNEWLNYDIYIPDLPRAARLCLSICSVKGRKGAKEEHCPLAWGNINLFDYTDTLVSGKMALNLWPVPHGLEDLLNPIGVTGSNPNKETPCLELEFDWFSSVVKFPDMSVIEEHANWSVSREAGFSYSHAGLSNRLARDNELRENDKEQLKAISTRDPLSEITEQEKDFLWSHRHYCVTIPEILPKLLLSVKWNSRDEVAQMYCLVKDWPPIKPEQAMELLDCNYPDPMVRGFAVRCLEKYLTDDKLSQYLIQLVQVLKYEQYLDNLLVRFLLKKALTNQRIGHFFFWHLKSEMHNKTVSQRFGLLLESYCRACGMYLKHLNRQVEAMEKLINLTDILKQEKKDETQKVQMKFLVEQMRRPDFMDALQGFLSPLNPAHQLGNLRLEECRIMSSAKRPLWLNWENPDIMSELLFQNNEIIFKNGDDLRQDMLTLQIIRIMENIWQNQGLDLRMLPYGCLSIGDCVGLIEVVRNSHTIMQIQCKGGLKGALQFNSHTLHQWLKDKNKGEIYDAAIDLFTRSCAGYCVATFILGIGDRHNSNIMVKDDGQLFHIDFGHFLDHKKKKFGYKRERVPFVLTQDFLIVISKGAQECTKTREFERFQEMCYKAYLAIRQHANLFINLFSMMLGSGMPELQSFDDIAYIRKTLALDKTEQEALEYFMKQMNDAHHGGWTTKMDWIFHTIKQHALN

A549 [8] = test: Antiproliferative activity against human A549 cells
MDA-MB-231 = test: Antiproliferative activity against human MDA-MB-231 cells
Jurkat = test: Antiproliferative activity against human Jurkat cells; assay type: functional, cell-based
HepG2 [9] = test: Antiproliferative activity against human HepG2 cells; assay type: functional, cell-based
MCF7 [10] = test: cells; settings: Homo sapiens
HCT-116 [11] = test: cells; settings: Homo sapiens
HeLa [12] = test: Antiproliferative activity against human HeLa cells; assay type: functional, cell-based
HT-29 = test: Antiproliferative activity against human HT-29 cells; assay type: functional, cell-based
[13] = Cytotoxicity against human L02 cells assessed as inhibition of cell growth incubated for 48 hrs by MTT assay; assay type: toxicity, cell-based
[14] = Cytotoxicity against HEK293 cells assessed as inhibition of cell growth incubated for 48 hrs by MTT assay; assay type: toxicity, cell-based; settings: human
MM1.S = test: Antiproliferative activity against human MM1.S cells assessed as inhibition of cell growth incubated for 48 hrs by MTT assay; assay type: functional, cell-based
RPMI-8226 = test: Antiproliferative activity against human RPMI-8226 cells assessed as inhibition of cell growth incubated for 48 hrs by MTT assay; assay type: functional, cell-based; settings: RPMI-8226, 48 h
U-266 = test: cells; assay type: functional, cell-based; settings: Homo sapiens, U-266, 48 h
[15] = biological target: Tyrosine-protein kinase JAK2 (Homo sapiens, UniProt O60674); test: Inhibition of JAK2 (unknown origin)
Sequence of Tyrosine-protein kinase JAK2 (O60674 whole entry): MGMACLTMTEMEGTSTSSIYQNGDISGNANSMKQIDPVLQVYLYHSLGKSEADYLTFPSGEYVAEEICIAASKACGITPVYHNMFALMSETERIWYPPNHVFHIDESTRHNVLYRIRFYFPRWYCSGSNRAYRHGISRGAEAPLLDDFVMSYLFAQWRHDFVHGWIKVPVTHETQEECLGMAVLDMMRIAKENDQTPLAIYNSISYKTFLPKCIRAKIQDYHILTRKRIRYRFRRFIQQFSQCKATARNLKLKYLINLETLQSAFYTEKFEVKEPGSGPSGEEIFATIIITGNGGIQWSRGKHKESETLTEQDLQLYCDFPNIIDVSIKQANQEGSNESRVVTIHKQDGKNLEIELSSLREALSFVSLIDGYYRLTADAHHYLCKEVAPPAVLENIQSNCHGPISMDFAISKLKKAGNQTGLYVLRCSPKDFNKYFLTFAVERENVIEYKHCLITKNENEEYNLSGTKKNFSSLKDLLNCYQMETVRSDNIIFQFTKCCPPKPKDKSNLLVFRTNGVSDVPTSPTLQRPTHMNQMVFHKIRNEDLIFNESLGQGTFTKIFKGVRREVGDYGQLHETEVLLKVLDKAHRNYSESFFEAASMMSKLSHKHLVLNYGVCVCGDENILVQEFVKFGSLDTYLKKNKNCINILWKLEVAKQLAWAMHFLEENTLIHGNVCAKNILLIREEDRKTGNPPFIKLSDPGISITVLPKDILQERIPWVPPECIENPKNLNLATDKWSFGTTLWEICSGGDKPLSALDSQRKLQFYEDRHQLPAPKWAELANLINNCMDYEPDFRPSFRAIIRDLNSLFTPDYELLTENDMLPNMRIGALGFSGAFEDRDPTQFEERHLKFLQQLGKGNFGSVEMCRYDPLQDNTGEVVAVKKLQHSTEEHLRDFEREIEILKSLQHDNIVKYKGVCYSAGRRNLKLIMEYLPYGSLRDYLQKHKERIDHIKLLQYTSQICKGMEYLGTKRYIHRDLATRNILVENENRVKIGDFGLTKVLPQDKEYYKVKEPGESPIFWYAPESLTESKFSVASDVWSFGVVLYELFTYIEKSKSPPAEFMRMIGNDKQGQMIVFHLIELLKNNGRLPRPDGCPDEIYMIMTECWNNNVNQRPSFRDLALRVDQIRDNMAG

HL-60 = test: Antiproliferative activity against human HL-60 cells; assay type: functional, cell-based
[16] = biological target: T1, Protein deacetylase HDAC6 (Homo sapiens, UniProt Q9UBN7); test: Inhibition of HDAC6 (unknown origin)
T1 sequence (Q9UBN7 whole entry): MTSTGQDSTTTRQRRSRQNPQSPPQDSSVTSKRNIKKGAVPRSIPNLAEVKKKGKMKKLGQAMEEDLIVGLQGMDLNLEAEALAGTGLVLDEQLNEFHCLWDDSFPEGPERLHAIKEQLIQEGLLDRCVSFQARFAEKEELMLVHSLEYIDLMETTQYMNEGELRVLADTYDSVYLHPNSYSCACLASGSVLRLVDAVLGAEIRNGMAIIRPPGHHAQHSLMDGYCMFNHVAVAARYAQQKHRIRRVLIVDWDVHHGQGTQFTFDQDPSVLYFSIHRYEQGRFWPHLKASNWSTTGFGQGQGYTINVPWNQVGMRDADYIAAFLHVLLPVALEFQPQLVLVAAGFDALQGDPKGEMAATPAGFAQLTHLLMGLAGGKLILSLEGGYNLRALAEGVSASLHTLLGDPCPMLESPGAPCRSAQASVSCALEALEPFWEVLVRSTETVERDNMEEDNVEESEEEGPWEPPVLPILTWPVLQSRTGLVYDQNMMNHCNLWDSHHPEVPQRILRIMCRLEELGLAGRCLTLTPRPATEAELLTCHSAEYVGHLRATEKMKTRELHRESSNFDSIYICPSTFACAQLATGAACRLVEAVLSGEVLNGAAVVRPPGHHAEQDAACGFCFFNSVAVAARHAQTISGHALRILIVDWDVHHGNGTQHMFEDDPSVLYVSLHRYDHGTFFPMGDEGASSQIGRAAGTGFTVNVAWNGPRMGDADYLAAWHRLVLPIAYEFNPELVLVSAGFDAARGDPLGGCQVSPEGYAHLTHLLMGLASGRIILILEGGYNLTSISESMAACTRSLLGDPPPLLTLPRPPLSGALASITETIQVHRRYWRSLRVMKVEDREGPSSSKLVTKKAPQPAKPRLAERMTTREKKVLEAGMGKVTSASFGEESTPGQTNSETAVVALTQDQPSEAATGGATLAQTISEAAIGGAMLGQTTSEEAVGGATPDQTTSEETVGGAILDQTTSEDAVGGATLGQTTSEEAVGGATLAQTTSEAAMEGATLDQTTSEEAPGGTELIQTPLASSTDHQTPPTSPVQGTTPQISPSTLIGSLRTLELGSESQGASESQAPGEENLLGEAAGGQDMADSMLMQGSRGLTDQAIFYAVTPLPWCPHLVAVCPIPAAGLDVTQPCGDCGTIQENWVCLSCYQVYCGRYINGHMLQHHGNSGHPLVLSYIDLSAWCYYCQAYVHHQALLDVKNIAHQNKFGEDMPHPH

A-375 = test: Antiproliferative activity against human A-375 cells; assay type: functional, cell-based
SGC-7901 = test: Antiproliferative activity against human SGC-7901 cells; assay type: functional, cell-based
Daudi = test: Cytotoxicity against human Daudi cells assessed as reduction in cell growth incubated for 24 hrs by MTT assay; assay type: functional, cell-based
MV4-11 = test: Cytotoxicity against human MV4-11 cells assessed as reduction in cell growth incubated for 24 hrs by MTT assay; assay type: functional, cell-based; settings: MV4-11, 24 h
A549 [17] = test: Cytotoxicity against human A549 cells assessed as reduction in cell growth incubated for 24 hrs by MTT assay; assay type: functional, cell-based; settings: A549, 24 h
Histone deacetylase 8 = biological target: T2, Histone deacetylase 8 (Homo sapiens, UniProt Q9BY41); test: Inhibition of HDAC8 (unknown origin) using R-H-K(Ac)-K(Ac)-AFC as fluoregenic substrate by fluorescence based analysis
T2 sequence (Q9BY41 whole entry): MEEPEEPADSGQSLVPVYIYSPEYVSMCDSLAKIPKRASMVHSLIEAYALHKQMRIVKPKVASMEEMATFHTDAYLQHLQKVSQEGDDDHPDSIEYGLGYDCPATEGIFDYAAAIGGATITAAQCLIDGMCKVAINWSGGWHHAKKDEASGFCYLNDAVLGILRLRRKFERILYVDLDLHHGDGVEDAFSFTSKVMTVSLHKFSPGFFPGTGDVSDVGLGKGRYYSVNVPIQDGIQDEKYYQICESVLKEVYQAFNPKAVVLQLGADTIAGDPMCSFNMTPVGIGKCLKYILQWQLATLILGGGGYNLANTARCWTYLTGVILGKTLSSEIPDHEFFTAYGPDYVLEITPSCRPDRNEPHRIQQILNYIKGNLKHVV

MCF7 [18] = test: Cytotoxicity against human MCF7 cells assessed as reduction in cell growth incubated for 24 hrs by MTT assay; assay type: functional, cell-based; settings: MCF7, 24 h
HCT-116 [19] = test: Antiproliferative activity against human HCT-116 cells measured after 72 hrs by MTT assay; assay type: functional, cell-based; settings: HCT-116, 72 h
A549 [20] = test: Antiproliferative activity against human A549 cells measured after 72 hrs by MTT assay; assay type: functional, cell-based; settings: A549, 72 h
MCF7 [21] = test: Antiproliferative activity against human MCF7 cells measured after 72 hrs by MTT assay; assay type: functional, cell-based; settings: MCF7, 72 h

IC50 (Histone deacetylase 1): 0.0048 µM
IC50 (A2780): 2.15 µM
IC50 [7]: 0.0013 µM
SMILES: COc1ncc(-c2ccc3nccc(C(=O)NCCCCC(=O)NO)c3c2)cc1NS(=O)(=O)c1cc(F)cc(F)c1

IC50 (MCF7 [10]): 0.18 µM
IC50 (A549 [8]): 0.18 µM
SMILES: CN1c2ccc(NCc3ccc(/C=C/C(=O)NO)cc3)cc2C(=O)N2CCc3c([nH]c4ccc(O)cc34)C21 (stereo unspecified)

IC50 (HCT-116 [19]): 0.52 µM
IC50 (A549 [20]): 0.52 µM
IC50 (MCF7 [21]): 0.52 µM
SMILES: COc1cc2c(Oc3ccc(NC(=O)C4(C(=O)Nc5ccc(F)cc5)CC4)cc3F)ccnc2cc1OCCCN1CCOCC1 [FORETINIB]

IC50 (Histone deacetylase 8): 0.183 µM
SMILES: O=C(CCCCCN1C(=O)c2ccccc2NC(=O)c2cc3ccccc3cc21)NO
IC50 (Daudi): 0.093 µM
IC50 (MV4-11): 0.093 µM
IC50 (A549 [17]): 0.093 µM
IC50 (MCF7 [18]): 0.093 µM

IC50 (MCF7 [10]): 22.5 µM
SMILES: CC/C(=C(\c1ccccc1)c1ccc(OCCN(C)C)cc1)c1ccccc1 [TAMOXIFEN]

More lines, now with the values behind:

SMILES: COc1cccc2c1C(=O)c1c(O)c3c(c(O)c1C2=O)C[C@@](O)(C(=O)CO)C[C@@H]3O[C@H]1C[C@H](N)[C@H](O)[C@H](C)O1 [DOXORUBICIN]
GI50 (MCF7 [1]): < 10 µM
GI50 (K562): < 10 µM
IC50 (HeLa [2]): 4.17 µM
IC50 (HepG2 [3]): 4.17 µM
GI50 (A549 [4]): < 10 µM
GI50 (HeLa [5]): < 10 µM
IC50 (HCT-116 [6]): 4.17 µM

SMILES: Cc1cnc(Nc2ccc(OCCN3CCCC3)cc2)nc1Nc1cccc(S(=O)(=O)NC(C)(C)C)c1 [FEDRATINIB]
IC50 (A549 [8]): 0.56 µM
IC50 (MDA-MB-231): 0.56 µM
IC50 (Jurkat): 0.56 µM
IC50 (HepG2 [9]): 0.56 µM

SMILES: CCN(CC)c1ccc2cc(C(=O)Oc3cccc(/C=C/C(=O)NO)c3)c(=O)oc2c1
IC50 (MCF7 [10]): 7.01 µM
IC50 (HCT-116 [11]): 7.01 µM
IC50 (HeLa [12]): 7.01 µM
IC50 (HepG2 [9]): 7.01 µM

SMILES: COc1ccc2c(c1)[nH]c1c(C)nccc12 [HARMINE]
IC50 (HT-29): > 20 µM
IC50 (HCT-116 [11]): > 20 µM
IC50 (A549 [8]): > 20 µM
IC50 (HepG2 [9]): > 20 µM

SMILES: COc1ccc2cc(C(=O)Oc3cccc(/C=C/C(=O)NO)c3)c(=O)oc2c1
IC50 (MCF7 [10]): 6.91 µM
IC50 (HCT-116 [11]): 6.91 µM
IC50 (HeLa [12]): 6.91 µM
IC50 (HepG2 [9]): 6.91 µM

SMILES: CN1CCc2c(c3ccccc3n2Cc2ccc(C(=O)NO)cc2)C1 [TUBASTATIN A]
IC50 (MM1.S): 9.45 µM
IC50 (RPMI-8226): 9.45 µM
IC50 (U-266): 9.45 µM

SMILES: Cc1cccc(Nc2nc(Nc3ccc(NC(=O)CCCCCCC(=O)NO)cc3)ncc2C)c1
IC50 (Histone deacetylase 1): 0.0022 µM
IC50 (A549 [8]): 0.37 µM
IC50 (MDA-MB-231): 0.37 µM
IC50 (Jurkat): 0.37 µM
IC50 (HepG2 [9]): 0.37 µM
IC50 [15]: 0.0006 µM

SMILES: O=C(Cc1ccc(C(=O)NO)cc1)Nc1ccc2ncnc(Nc3ccc(Cl)c(F)c3)c2c1
IC50 (MCF7 [10]): 2.2 µM
IC50 (HCT-116 [11]): 2.2 µM
IC50 (A549 [8]): 2.2 µM
IC50 (HL-60): 2.2 µM
IC50 (MDA-MB-231): 2.2 µM
IC50 [16]: 1.49 µM
IC50 (A-375): 2.2 µM
IC50 (SGC-7901): 2.2 µM

SMILES: O=C(CCCCCN1C(=O)c2ccccc2NC(=O)c2ccccc21)NO
IC50 (Daudi): 0.093 µM
IC50 (MV4-11): 0.093 µM
IC50 (A549 [17]): 0.093 µM
IC50 (Histone deacetylase 8): 0.183 µM
IC50 (MCF7 [18]): 0.093 µM
